How the values were obtained:
[1] = target: T1, Cytochrome P450 2A6 (Homo sapiens, UniProt P11509); assay: Effect on coumarin 7-hydroxylation by human Cytochrome P-450 2A6
T1 sequence (P11509 whole entry): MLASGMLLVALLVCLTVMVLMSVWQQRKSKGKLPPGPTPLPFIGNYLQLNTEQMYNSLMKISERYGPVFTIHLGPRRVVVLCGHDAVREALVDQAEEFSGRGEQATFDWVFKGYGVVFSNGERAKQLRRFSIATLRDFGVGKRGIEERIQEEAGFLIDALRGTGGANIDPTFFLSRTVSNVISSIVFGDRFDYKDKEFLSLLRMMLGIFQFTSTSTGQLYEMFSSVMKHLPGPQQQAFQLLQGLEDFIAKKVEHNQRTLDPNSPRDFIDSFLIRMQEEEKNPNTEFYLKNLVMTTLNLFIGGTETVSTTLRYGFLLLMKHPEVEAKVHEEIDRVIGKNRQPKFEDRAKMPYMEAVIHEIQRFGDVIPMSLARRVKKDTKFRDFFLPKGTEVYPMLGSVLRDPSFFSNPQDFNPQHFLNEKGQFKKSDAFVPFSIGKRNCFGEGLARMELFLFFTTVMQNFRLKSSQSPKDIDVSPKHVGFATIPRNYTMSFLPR

[2] = target: T1, Cytochrome P450 2A6; assay: Inhibitory concentration value against human cytochrome P-450 2A6
[3] = target: T2, Cytochrome P450 2B6 (Homo sapiens, UniProt P20813); assay: Inhibitory concentration value against human cytochrome P-450 2B6
T2 sequence (P20813 whole entry): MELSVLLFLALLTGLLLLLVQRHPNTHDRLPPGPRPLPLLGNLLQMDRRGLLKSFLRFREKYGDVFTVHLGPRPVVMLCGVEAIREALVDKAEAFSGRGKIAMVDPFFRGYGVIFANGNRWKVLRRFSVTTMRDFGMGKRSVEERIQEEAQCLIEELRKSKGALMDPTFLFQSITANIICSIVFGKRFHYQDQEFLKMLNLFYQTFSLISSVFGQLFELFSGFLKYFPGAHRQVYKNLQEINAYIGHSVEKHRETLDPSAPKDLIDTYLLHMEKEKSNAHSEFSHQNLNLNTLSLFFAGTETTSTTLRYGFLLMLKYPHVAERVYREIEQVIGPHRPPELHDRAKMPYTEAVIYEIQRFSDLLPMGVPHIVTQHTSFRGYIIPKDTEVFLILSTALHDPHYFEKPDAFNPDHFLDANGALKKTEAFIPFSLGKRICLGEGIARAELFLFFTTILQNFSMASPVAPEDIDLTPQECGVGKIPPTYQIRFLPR

[4] = target: Cytochrome P450 2D6 (Homo sapiens, UniProt P10635); assay: Inhibitory concentration value against human cytochrome P-450 2D6
Cytochrome P450 2D6, sequence (P10635 whole entry): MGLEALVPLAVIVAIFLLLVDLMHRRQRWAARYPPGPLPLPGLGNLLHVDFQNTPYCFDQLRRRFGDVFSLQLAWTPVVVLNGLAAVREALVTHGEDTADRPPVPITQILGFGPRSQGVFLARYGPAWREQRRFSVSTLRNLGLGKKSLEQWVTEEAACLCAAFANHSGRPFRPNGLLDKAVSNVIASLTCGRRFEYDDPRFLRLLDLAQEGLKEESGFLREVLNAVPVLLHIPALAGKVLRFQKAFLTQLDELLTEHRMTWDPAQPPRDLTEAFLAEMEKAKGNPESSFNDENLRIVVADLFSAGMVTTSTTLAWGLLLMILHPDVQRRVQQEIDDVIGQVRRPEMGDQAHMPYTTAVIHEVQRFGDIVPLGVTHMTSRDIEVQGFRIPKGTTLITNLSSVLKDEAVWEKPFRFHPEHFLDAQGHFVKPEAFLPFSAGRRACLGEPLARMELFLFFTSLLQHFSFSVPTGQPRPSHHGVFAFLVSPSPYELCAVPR

[5] = target: Cytochrome P450 2E1 (Homo sapiens, UniProt P05181); assay: Inhibitory concentration value against human cytochrome P-450 2E1
Cytochrome P450 2E1, sequence (P05181 whole entry): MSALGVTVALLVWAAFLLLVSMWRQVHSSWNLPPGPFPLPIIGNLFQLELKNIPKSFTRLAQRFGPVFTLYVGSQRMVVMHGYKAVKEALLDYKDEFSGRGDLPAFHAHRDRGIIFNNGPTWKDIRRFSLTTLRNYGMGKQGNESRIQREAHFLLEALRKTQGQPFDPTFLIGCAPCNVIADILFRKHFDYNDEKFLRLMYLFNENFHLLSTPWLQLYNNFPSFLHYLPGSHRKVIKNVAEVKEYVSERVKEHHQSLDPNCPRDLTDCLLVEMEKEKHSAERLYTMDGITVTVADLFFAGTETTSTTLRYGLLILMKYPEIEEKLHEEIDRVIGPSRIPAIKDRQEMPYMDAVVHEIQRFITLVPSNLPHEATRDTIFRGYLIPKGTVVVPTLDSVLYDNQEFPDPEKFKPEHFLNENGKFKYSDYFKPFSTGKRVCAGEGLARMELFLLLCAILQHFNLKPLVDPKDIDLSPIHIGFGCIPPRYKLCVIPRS

[6] = target: Cytochrome P450 3A4 (Homo sapiens, UniProt P08684); assay: Inhibitory concentration value against human cytochrome P-450 3A4
Cytochrome P450 3A4, sequence (P08684 whole entry): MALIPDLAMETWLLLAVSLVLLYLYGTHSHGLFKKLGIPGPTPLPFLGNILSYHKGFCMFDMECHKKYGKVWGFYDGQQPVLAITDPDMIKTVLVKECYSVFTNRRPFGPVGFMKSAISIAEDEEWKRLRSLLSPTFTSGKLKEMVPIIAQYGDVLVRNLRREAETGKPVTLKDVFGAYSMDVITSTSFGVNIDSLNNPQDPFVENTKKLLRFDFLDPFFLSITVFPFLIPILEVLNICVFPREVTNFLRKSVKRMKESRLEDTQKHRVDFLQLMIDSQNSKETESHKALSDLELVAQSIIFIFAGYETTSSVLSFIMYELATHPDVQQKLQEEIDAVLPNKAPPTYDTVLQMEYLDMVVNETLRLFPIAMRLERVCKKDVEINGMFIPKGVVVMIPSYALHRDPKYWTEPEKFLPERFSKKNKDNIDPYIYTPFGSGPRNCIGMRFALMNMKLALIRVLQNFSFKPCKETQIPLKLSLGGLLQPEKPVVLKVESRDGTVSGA

[7] = target: Cytochrome P450 2C19 (Homo sapiens, UniProt P33261); assay: Inhibitory concentration value against human cytochrome P-450 2C19
Cytochrome P450 2C19, sequence (P33261 whole entry): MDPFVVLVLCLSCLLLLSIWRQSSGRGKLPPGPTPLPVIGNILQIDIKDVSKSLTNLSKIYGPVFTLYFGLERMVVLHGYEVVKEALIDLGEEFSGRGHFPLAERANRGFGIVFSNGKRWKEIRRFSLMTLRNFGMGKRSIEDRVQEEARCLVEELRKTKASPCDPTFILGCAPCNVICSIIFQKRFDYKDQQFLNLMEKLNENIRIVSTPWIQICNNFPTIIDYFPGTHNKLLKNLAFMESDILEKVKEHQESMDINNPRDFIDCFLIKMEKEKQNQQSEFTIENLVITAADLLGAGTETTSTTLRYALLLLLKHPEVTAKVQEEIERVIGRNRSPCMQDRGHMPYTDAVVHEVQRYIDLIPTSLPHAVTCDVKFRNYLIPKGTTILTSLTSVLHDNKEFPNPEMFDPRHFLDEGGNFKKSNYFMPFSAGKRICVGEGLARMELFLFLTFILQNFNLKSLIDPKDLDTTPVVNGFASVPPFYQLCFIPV

[8] = target: Cytochrome P450 2C9 (Homo sapiens, UniProt P11712); assay: Inhibitory concentration against human cytochrome P-450 2C9
Cytochrome P450 2C9, sequence (P11712 whole entry): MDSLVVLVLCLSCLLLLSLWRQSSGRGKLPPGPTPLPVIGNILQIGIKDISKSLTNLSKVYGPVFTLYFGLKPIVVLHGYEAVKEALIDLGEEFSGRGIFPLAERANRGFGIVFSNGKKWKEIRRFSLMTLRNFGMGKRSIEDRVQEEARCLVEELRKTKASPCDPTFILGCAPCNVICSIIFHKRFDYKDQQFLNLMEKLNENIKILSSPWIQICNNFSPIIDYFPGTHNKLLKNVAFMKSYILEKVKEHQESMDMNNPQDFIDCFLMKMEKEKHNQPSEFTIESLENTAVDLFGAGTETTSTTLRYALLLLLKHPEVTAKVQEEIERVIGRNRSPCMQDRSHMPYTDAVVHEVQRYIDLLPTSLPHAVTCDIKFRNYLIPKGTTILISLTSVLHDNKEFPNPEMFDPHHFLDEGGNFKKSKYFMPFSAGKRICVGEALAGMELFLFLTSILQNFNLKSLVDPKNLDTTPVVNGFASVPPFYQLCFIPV

[9] = tested on: CYP2B6 versus CYP2A6; assay: Ratio of inhibition of human cytochrome P-450 2B6 to 2A6 was determined; Expressed as IC50(CYP2B6)/IC50(CYP2A6)
[10] = tested on: CYP2C9 versus CYP2A6; assay: Ratio of inhibition of human cytochrome P-450 2C9 to 2A6 was determined; Expressed as IC50(CYP2C9)/IC50(CYP2A6)
[11] = tested on: CYP2D6 versus CYP2A6; assay: Ratio of inhibition of human cytochrome P-450 2D6 to 2A6 was determined; Expressed as IC50(CYP2D6)/IC50(CYP2A6)
[12] = tested on: CYP2E1 versus CYP2A6; assay: Ratio of inhibition of human cytochrome P-450 2E1 to 2A6 was determined; Expressed as IC50(CYP2E1)/IC50(CYP2A6)
[13] = tested on: CYP3A4 versus CYP2A6; assay: Ratio of inhibition of human cytochrome P-450 3A4 to 2A6 was determined; Expressed as IC50(CYP3A4)/IC50(CYP2A6)
[14] = tested on: CYP2C19 versus CYP2A6; assay: Ratio of inhibition of human cytochrome P-450 2C19 to 2A6 was determined; Expressed as IC50(CYP2C19)/IC50(CYP2A6)

SMILES	Ki [1]	IC50 [3]	IC50 [4]	IC50 [5]	IC50 [7]	IC50 [8]	further results
Cc1ccsc1-c1cncc(Br)c1	1.5 µM	–	–	–	–	–	–
N=Cc1ccc(-c2cccnc2)s1.N=Cc1ccc(-c2cccnc2)s1.NCc1ccc(-c2cccnc2)s1	–	256 µM	197 µM	77.5 µM	–	–	IC50 [2]: 3.7 µM; IC50 [6]: 77.5 µM
O=Cc1ccc(-c2cccnc2)o1	≥ 67 µM	–	–	–	–	–	–
CC(=O)c1ccc(-c2cccnc2)s1	1.4 µM	217 µM	387 µM	> 400 µM	62.7 µM	98.2 µM	selectivity ratio [9]: 25; selectivity ratio [10]: 11; selectivity ratio [11]: 45; selectivity ratio [12]: > 46; selectivity ratio [13]: 3.1; selectivity ratio [14]: 7
c1cncc(-c2ccc(CNCc3ccc(-c4cccnc4)s3)s2)c1	–	–	–	–	–	–	IC50 [6]: > 400 µM
c1cncc(-c2cncnc2)c1	27.4 µM	–	–	–	–	–	–
c1ccc(-c2cccnc2)nc1 [[2,3'']Bipyridinyl]	7.7 µM	–	–	–	–	–	–
Cc1ccnc(-c2cccnc2)c1	5.1 µM	–	–	–	–	–	–
c1cncc(-n2cnnn2)c1	≥ 67 µM	–	–	–	–	–	–
O/N=C/c1ccc(-c2cccnc2)o1.O/N=C\c1ccc(-c2cccnc2)o1	–	–	> 400 µM	–	–	–	–
C[n+]1c[nH]cc1-c1cccnc1	0.13 µM	146 µM	217 µM	4.1 µM	122 µM	79.5 µM	IC50 [2]: 0.75 µM; IC50 [6]: 262 µM; selectivity ratio [9]: 195; selectivity ratio [10]: 106; selectivity ratio [11]: 289; selectivity ratio [12]: 5; selectivity ratio [13]: 349; selectivity ratio [14]: 163
Cc1cccc(-c2cccnc2)n1	9.8 µM	–	–	–	–	–	–
Cc1cncc(-c2cscc2C)c1	0.17 µM	–	–	–	–	–	–
CNc1ccc(-c2cccnc2)s1	0.59 µM	6.8 µM	14.4 µM	31.1 µM	3.2 µM	2.1 µM	IC50 [2]: 3.5 µM; IC50 [6]: 6.3 µM; selectivity ratio [9]: 1.9; selectivity ratio [10]: 0.6; selectivity ratio [11]: 4.1; selectivity ratio [12]: 8.9; selectivity ratio [13]: 2; selectivity ratio [14]: 0.9
O=[N+]([O-])c1ccc(-c2cccnc2)s1	19.7 µM	–	–	–	–	–	–
NCc1ccc(-c2cccnc2)cc1	1.4 µM	–	–	–	–	–	–
Brc1cncc(-c2ccsc2)c1	4.5 µM	–	–	–	–	–	–
O/N=C/c1ccc(-c2cccnc2)o1	0.71 µM	372 µM	> 400 µM	> 400 µM	118 µM	86.2 µM	IC50 [6]: > 400 µM; selectivity ratio [10]: 1; selectivity ratio [14]: 1.4
Cc1cn(-c2cccnc2)cn1	0.17 µM	> 300 µM	297 µM	57.9 µM	> 300 µM	> 300 µM	IC50 [2]: 1 µM
COc1ccc(-c2cscc2C)cn1	6.6 µM	–	–	–	–	–	–

SMILES	Ki [1]	IC50 [3]	IC50 [4]	IC50 [5]	IC50 [7]	IC50 [8]	further results
c1cncc(-c2cccnc2)c1	–	–	> 300 µM	> 300 µM	> 300 µM	> 300 µM	–
Cc1nc(-c2cccnc2)c[nH]1	6.2 µM	–	–	–	–	–	–
c1cncc(-c2ccsc2)c1	0.22 µM	59.1 µM	248 µM	> 400 µM	111 µM	96.3 µM	IC50 [2]: 1.4 µM; IC50 [6]: 56.9 µM; selectivity ratio [9]: 42; selectivity ratio [10]: 69; selectivity ratio [11]: 177; selectivity ratio [12]: > 286; selectivity ratio [13]: 400; selectivity ratio [14]: 81
Cn1cnc(-c2cccnc2)c1	0.13 µM	146 µM	217 µM	4.1 µM	122 µM	79.5 µM	selectivity ratio [11]: 289
CN1CCC[C@H]1c1cccnc1 [NICOTINE]	4.4 µM	–	–	–	–	–	–
O/N=C/c1ccc(-c2cccnc2)s1	0.24 µM	214 µM	191 µM	4.2 µM	37.2 µM	223 µM	IC50 [2]: 1.4 µM; selectivity ratio [9]: 153; selectivity ratio [10]: 159; selectivity ratio [11]: 136; selectivity ratio [12]: 3; selectivity ratio [13]: 9.3; selectivity ratio [14]: 27
NCc1ccc(-c2cccnc2)o1	–	–	–	–	–	–	selectivity ratio [11]: 4.1
Cc1cccnc1-c1cccnc1	43.7 µM	–	–	–	–	–	–
c1cncc(-c2cccs2)c1	–	70.8 µM	> 400 µM	4.1 µM	178 µM	99.2 µM	–
CNCC#Cc1cccnc1	0.89 µM	–	–	–	–	–	–
Cc1cscc1-c1ccc(F)nc1	–	–	–	–	–	> 400 µM	–
O/N=C\c1ccc(-c2cccnc2)o1	13.7 µM	128 µM	> 400 µM	> 400 µM	279 µM	398 µM	IC50 [2]: 4.2 µM; IC50 [6]: > 400 µM; selectivity ratio [10]: 94; selectivity ratio [11]: > 95; selectivity ratio [13]: > 95; selectivity ratio [14]: 66
CCn1cnc(-c2cccnc2)c1	0.52 µM	83.1 µM	344 µM	80 µM	46.4 µM	75.2 µM	IC50 [6]: 79.2 µM; selectivity ratio [9]: 26; selectivity ratio [10]: 24; selectivity ratio [11]: 111; selectivity ratio [12]: 26; selectivity ratio [13]: 26; selectivity ratio [14]: 15
Cc1ccc(-c2cccnc2)nc1	2.7 µM	–	–	–	–	–	–
Fc1ccc(-c2ccsc2)cn1	0.97 µM	72.1 µM	199 µM	7.2 µM	182 µM	> 400 µM	IC50 [2]: 5.8 µM; IC50 [6]: 114 µM; selectivity ratio [9]: 12; selectivity ratio [10]: > 69; selectivity ratio [11]: 34; selectivity ratio [12]: 1.2; selectivity ratio [13]: 20; selectivity ratio [14]: 31
COc1ccc(-c2sccc2C)cn1	≥ 67 µM	–	–	–	–	–	–
Cc1ccsc1-c1ccc(F)nc1	0.21 µM	–	–	–	–	–	–
c1cncc(-c2nccs2)c1	3.2 µM	–	–	–	–	–	–
Clc1ccc(-c2cccnc2)cn1	6.3 µM	–	–	–	–	–	–
